Activity calls are given as the source filed them.
What was measured:
[1] = target: Peroxisome proliferator-activated receptor gamma/Nuclear receptor coactivator 1 (Homo sapiens, UniProt P37231); type: functional;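 further: agonist potency as compounds enhance coactivator SRC-1 recruitment to PPARgamma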
[2] = target: Photoreceptor-specific nuclear receptor (Homo sapiens, UniProt Q9Y5X4); test: ligands suppressing NR2E3 nuclear receptor activity – biochemical, TR-FRET, dose response (AID 463256); type: functional
Sequence of Photoreceptor-specific nuclear receptor (Q9Y5X4 whole entry): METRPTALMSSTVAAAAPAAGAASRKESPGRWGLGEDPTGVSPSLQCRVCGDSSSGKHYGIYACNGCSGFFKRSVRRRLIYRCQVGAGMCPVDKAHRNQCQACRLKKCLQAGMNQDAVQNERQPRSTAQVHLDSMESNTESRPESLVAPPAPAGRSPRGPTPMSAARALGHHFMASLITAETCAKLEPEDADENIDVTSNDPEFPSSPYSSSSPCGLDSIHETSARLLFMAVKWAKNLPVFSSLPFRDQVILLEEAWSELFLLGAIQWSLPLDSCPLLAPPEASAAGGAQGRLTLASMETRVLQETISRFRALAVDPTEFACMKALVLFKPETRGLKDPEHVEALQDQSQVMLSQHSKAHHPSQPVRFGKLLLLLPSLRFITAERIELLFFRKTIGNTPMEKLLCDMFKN

[3] = target: Peroxisome proliferator-activated receptor gamma/Nuclear receptor coactivator 2 (Homo sapiens, UniProt P37231); type: functional;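 further: agonist potency for raising coactivator recruitment to the receptor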
Sequence of Peroxisome proliferator-activated receptor gamma/Nuclear receptor coactivator 2 (P37231 whole entry): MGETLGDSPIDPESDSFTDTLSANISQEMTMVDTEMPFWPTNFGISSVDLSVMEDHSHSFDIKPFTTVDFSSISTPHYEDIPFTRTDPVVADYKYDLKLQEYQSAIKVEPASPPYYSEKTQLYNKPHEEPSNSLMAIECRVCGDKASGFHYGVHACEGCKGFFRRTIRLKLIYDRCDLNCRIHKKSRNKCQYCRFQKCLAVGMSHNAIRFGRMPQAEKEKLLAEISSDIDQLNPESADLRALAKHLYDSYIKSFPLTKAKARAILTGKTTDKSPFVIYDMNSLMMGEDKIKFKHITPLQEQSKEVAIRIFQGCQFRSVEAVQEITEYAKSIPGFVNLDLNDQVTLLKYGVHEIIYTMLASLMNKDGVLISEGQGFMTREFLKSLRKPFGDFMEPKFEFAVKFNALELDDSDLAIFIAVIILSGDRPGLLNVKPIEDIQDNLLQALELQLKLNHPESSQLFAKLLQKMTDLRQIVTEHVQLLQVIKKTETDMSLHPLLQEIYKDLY
Sequence of Peroxisome proliferator-activated receptor gamma/Nuclear receptor coactivator 2 (Q15596 whole entry, further chain): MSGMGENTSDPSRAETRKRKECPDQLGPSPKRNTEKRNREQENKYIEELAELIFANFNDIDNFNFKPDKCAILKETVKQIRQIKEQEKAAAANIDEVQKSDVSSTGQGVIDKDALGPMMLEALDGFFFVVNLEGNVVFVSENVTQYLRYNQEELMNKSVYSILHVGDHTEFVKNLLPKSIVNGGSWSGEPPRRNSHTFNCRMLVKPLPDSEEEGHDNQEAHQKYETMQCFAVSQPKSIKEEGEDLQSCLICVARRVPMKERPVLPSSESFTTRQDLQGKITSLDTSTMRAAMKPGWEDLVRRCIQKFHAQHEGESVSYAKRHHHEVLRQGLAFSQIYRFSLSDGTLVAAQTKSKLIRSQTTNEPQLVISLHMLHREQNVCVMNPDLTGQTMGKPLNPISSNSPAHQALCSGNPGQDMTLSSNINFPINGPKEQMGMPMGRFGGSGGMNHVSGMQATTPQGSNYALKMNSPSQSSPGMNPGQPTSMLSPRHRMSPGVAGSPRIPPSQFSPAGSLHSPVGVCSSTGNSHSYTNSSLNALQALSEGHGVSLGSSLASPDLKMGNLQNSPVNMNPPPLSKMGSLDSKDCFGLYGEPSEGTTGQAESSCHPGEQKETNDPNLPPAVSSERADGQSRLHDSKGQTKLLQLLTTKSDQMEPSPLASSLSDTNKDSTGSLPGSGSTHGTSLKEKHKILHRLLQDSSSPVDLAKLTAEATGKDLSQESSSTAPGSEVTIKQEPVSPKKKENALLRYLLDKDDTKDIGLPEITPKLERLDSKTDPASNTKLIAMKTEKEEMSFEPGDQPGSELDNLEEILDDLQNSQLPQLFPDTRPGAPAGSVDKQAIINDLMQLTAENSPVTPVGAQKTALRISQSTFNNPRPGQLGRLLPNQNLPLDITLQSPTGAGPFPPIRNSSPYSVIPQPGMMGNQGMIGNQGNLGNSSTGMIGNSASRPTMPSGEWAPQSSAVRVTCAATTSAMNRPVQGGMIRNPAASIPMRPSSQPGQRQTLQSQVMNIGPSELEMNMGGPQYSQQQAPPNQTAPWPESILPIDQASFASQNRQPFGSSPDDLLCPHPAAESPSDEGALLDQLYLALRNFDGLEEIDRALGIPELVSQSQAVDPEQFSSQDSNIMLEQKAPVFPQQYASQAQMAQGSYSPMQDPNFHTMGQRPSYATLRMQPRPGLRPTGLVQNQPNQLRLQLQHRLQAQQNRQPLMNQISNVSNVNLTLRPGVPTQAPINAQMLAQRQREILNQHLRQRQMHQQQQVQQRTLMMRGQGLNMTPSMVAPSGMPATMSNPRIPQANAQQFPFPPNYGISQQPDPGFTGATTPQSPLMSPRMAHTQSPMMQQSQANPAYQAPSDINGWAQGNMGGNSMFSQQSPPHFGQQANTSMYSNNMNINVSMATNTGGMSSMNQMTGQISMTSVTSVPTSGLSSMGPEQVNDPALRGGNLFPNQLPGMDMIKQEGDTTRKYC

[4] = target: Peroxisome proliferator-activated receptor gamma/Nuclear receptor coactivator 3 (Homo sapiens, UniProt P37231); type: functional;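 further: agonist potency for raising coactivator recruitment to the receptor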
[5] = target: Peroxisome proliferator-activated receptor gamma/Nuclear receptor corepressor 2 (Homo sapiens, UniProt P37231+Q9Y618); test: Counterscreen for NR2E3 inverse agonists: TR-FRET-based biochemical high throughput dose response assay to identify inverse agonists of the interaction between peroxisome proliferator-activated receptor gamma (PPARg) and nuclear receptor co-repressor 2 (NCOR2).; type: functional
[6] = target: Solute carrier family 12 member 2/member 5 (Homo sapiens, UniProt P55011+Q9H2X9); test: KCC2 and NKCC1 inhibition by rubidium flux, cell-based, NKCC1 counter-screen (AID 1734); type: functional, HEK293
Leucine aminopeptidase = target: T1, Leucine aminopeptidase (Plasmodium falciparum 3D7, UniProt Q8IL11); test: P. falciparum M17LAP inhibitors, primary screen, biochemical, fluorogenic H-Leu-NHMec substrate, 1536-well (AID 1619); type: functional
T1 sequence (Q8IL11 whole entry): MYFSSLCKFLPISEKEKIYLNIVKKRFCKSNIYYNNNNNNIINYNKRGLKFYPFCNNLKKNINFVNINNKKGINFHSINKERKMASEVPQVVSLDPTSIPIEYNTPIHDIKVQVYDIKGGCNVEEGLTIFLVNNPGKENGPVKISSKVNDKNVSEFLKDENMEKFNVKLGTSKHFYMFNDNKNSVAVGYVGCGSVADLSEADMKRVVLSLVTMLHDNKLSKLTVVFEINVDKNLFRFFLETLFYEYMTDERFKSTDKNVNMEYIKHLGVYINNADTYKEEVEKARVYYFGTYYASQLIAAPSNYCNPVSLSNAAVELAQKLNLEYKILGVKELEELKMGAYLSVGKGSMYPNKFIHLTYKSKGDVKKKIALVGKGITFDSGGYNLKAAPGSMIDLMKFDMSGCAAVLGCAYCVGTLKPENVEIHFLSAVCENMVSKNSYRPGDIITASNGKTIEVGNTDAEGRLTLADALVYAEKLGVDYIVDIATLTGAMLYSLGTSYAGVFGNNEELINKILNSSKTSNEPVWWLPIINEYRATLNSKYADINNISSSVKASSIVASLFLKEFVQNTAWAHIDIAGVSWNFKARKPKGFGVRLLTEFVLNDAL

[7] = viability loss in human Jurkat cells – cell-based, luminescence, cytotoxicity control for P. falciparum gametocyte viability project, dose response (AID 1117277); type: functional;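 further: potency reflects loss of cellular ATP meaning fewer viable cells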
[8] = viability inhibitors of stage V gametocytes – luminescence, dose response (AID 1117278); type: functional, cell-based;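 further: gametocytes exposed to compound for 24 hours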
[9] = M. tuberculosis growth inhibition, HTS (AID 449762); type: functional
[10] = Luminescence-based cell-based high throughput dose response assay to identify activators of the DAF-12 from the parasite S. stercoralis (ssDAF-12).; type: functional
[11] = target: T2, Oxysterols receptor LXR-beta (Homo sapiens, UniProt P55055); test: LXR agonists, Gal4 luciferase reporter, dose response, counter-screen for ssDAF-12 agonist project, cell-based, luminescence, HEK293, S. stercoralis campaign (AID 720737); type: functional; conditions: read-out: IC50 (the source's name)
T2 sequence (P55055 whole entry): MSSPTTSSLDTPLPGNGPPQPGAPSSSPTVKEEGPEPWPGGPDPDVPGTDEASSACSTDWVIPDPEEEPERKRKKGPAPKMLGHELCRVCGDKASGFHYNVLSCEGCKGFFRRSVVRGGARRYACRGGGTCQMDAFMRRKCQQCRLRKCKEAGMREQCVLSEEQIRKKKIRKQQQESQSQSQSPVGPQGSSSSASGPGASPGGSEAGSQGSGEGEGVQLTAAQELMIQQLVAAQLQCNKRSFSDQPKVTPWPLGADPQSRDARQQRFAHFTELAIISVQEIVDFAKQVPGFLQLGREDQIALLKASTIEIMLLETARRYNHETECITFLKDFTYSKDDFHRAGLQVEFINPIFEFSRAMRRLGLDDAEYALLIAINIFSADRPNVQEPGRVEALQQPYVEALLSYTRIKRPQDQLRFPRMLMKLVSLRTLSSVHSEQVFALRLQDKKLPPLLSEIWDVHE

Transthyretin = Transthyretin (Homo sapiens, UniProt P02766); test: Luminescence-based cell-based high throughput dose response assay to identify activators of Transthyretin (TTR) transcription.; type: functional

Sequence of Peroxisome proliferator-activated receptor gamma/Nuclear receptor coactivator 1 (P37231 whole entry): as the sequence (P37231 whole entry) above
Sequence of Peroxisome proliferator-activated receptor gamma/Nuclear receptor coactivator 1 (Q15788 whole entry, further chain): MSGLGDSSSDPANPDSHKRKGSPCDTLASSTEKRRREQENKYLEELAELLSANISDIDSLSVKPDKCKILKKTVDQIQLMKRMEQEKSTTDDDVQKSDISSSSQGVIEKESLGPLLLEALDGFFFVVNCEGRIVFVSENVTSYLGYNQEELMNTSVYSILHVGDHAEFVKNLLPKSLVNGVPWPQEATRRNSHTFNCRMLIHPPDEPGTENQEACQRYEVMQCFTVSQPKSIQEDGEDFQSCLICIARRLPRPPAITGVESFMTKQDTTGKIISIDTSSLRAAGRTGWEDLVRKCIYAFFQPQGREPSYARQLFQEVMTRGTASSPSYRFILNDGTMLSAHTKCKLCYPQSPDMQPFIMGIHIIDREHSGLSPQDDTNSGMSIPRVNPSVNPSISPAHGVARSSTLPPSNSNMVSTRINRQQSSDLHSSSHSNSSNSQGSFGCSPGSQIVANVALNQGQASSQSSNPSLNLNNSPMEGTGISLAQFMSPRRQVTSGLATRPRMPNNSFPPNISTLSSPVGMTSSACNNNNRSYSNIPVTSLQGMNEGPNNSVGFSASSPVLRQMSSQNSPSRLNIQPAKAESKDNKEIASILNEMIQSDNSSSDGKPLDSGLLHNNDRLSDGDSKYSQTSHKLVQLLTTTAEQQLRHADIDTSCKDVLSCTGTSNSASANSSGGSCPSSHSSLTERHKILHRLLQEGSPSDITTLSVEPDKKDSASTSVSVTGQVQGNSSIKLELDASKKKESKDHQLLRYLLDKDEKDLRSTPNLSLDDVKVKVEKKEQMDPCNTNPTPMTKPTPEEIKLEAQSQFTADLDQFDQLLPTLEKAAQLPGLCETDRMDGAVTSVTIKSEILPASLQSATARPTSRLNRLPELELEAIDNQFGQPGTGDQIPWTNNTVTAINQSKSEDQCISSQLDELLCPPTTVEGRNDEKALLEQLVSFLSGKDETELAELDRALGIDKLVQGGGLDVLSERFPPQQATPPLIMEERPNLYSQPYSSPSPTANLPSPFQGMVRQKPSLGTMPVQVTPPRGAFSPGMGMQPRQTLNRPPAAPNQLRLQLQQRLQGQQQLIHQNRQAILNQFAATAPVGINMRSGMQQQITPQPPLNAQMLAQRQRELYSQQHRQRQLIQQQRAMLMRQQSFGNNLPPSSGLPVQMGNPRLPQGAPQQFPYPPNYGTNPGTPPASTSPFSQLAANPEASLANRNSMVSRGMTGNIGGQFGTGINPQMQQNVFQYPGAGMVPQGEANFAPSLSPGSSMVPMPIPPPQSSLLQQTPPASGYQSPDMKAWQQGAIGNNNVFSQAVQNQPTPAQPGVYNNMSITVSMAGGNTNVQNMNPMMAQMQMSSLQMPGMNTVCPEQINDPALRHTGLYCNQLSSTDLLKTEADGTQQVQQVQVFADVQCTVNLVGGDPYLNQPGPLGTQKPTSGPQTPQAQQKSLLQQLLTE

Cc1cccc(NC(=O)c2sc3nc(-c4ccc(F)cc4)cn3c2C)n1
EC50 [1]: 16.8 µM (not active)
IC50 [2]: 1.17 µM (active)
EC50 [3]: 12.3 µM (not active)
EC50 [4]: 22.5 µM (not active)
IC50 [5]: 1.18 µM (active)

Cc1ccc(Nc2nnc(SCC(=O)c3cc4ccccc4o3)s2)cc1C
IC50 [6]: 0.64 µM (active)
IC50 (Leucine aminopeptidase): 19.8 µM (active)

COc1cc(S(=O)(=O)NC2CCCCC2)c(C)cc1C
IC50 [7]: > 83.3 µM (inactive)
IC50 [8]: > 109 µM (inactive)

CC(C)c1ccc2[nH]c(O)c(N=NC(=O)c3ccc(CSc4nncn4C)cc3)c2c1
IC50 [9]: > 100 µM (active)

O=C(Nc1cccc(O)c1)c1c(O)nc2ccccc2c1O
IC50 [10]: > 67.5 µM (inactive)
EC50 [11]: > 67.5 µM (inactive)

Cc1nn(C)c(C(=O)N2CCc3ccccc32)c1Br
EC50 (Transthyretin): > 167 µM (inactive)
